Here are results for 3 molecules from patent publication US20250032630A1, “B7H4 ANTIBODY-DRUG CONJUGATE AND USE THEREOF” (Duality Biologics (Suzhou) Co., Ltd., priority 2022, published 2025).

The subject of one experiment is Colo205 cells. In words: In vitro proliferation inhibition test of small molecule compound (CTG, 6 days), Example 3.2. The format is cell-based. To be noted: Homo sapiens, COLO 205, 144 h, read-out: Abs-IC50. As for the experimental part:
(§1) To detect the inhibitory activity of the drug compound against the proliferation of NCI-N87 and Colo205 tumor cells in vitro. Cells were treated with different concentrations of the compound in vitro, after 6 days of culture, the proliferation of the cells was detected using CTG (CellTiter-Glo® Luminescent Cell Viability Assay, Promega, Cat. No.: G7558) reagent, and the in vitro activity of the compound was evaluated according to the IC50 values. • 1. Cell culture: NCI-N87/Colo205 cells were cultured with 10% FBS RPMI-1640 medium. • 2. Preparation of cells: the NCI-N87/Colo205 cells in the logarithmic growth phase were taken and washed once with PBS, and 2-3 ml of trypsin was then added for digestion for 2-3 min. After the cells were completely digested, 10-15 ml of cell culture medium was added to elute the digested cells, the cells were centrifuged at 1000 rpm for 5 min, the supernatant was discarded, and then 10-20 ml of cell culture medium was added to resuspend the cells to prepare a single cell suspension. • 3. Cell plating: the NCI-N87/Colo205 single cell suspensions were mixed uniformly, and respectively adjusted to a live cell density of 6×10^4 cells/ml with a cell culture medium, and the density-adjusted cell suspensions were mixed uniformly, and added to 96-well cell culture plates at 50 ul/well. The culture plates were cultured in an incubator for 18 hours (37° C., 5% CO2). • 4. Preparation of compound: the compound was dissolved in DMSO to formulate a stock solution with an initial concentration of 10 mM.
(§2) A total of 8 concentrations of the small molecule compound were involved: 300, 100, 30, 10, 3, 1, 0.3, and 0.1 nM, respectively. • 5. Sample loading operation: different concentrations of the formulated samples to be tested were added to culture plates, with two replicate wells for each sample. The culture plates were incubated in an incubator for 6 days (37° C., 5% CO2). • 6. Color development operation: the 96-well cell culture plates were taken out, 50 ul of CTG reagent was added to each well, and the plates were incubated for 10 minutes at room temperature. • 7. Plate reading operation: the 96-well cell culture plates were taken out, and placed in a microplate reader, and the chemiluminescence was determined using the microplate reader.
(§3) Data analysis: the data was processed and analyzed using Microsoft Excel and Graphpad Prism 5.

For a further experiment, the system named is NCI-N87 cells. Described as above. The experiment is classed as cell-based. As to conditions: Homo sapiens, read-out: Abs-IC50. The method, then:
as §1, §2, §3

For experiment [1], the system named is breast cancer cells JIMT-1 negative for B7H4 expression. Put plainly: In vitro proliferation inhibition (3D cell culture, CTG). The format is cell-based. As to conditions: Homo sapiens, 144 h, JIMT-1, 3D culture, 6 days. As for the experimental part:
(§4) The cells in the logarithmic growth phase were collected and a cell culture medium was added to resuspend the cells to prepare a single cell suspension. The single cell suspension was adjusted to a live cell density of […], and 3.5 mL of the cell suspension was mixed uniformly with 6.5 mL of 1% methylcellulose, avoiding bubbles as much as possible. 90 μL of the cell suspension was added to each well of 96-well plates, and the plates were cultured overnight in an incubator with 5% CO2 at 37° C. On the second day of the experiment, the test article was diluted with a complete medium to obtain a 10× solution, 10 μL of the test article solution (the highest final concentration of 100 nM, 9 concentrations, 3-fold dilution) was added to each well, the complete medium was used as a blank control, and 3 replicate wells were set up; and the plates were incubated in the incubator at 37° C. for another 6 days. After the incubation was completed, the cell culture plates were taken out and equilibrated to room temperature, and 100 μL of CTG detection reagent (Promega, Cat #: G7573) was added to each well. The plates were shaken and mixed uniformly, then left to stand in the dark for 10 minutes, and then placed at room temperature for 30 minutes to stabilize the luminescence signal. Luminescence was read using EnVision. Using GraphPad Prism software, a sigmoidal dose-response curve was plotted by using a non-linear regression model, and the IC50 value was calculated. Cell viability calculation

The test system of experiment [2] is endometrial carcinoma cells RL95-2 with low expression of B7H4. Described as above. The experiment is classed as cell-based. To be noted: Homo sapiens, 144 h, RL95-2, 3D culture, 6 days. The method, then:
as §4

Experiment [3] has as its system human breast cancer cells MX-1 with high expression of B7H4. Described as above. To be noted: 144 h, MX-1, 3D culture, 6 days. The format is cell-based. The method, then:
as §4

For the next experiment, the target named is T1, human B7H4 (human, UniProt Q7Z7D3 25-282).
T1 sequence (looked up): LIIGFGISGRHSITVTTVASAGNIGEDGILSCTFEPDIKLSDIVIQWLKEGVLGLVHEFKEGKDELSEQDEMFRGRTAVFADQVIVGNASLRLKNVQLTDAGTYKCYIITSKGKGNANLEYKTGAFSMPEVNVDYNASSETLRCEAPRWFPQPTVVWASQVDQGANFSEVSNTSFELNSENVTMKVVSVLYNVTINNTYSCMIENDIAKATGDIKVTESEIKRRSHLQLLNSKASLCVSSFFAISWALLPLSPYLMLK
In words: cell-based or functional assay.

The mark [4] stands for this setting: highest concentration 100 nM, read-out: Max inh.

One may read the IC50 as the concentration at which inhibition is half-maximal.

Like-named read-outs stand apart in the source and are kept apart here.

Turning to `CC[C@@]1(O)C(=O)OCc2c1cc1n(c2=O)Cc2c-1nc1cc(F)c(C)c3c1c2[C@@H](NC(=O)C[C@H](C)O)CC3` [P-III-30], the IC50 in the experiment with Colo205 cells (Colo205, 6 days, CTG) stood at 103 nM; in the experiment with NCI-N87 cells (144 h, NCI-N87, 6 days, CTG), 6.5 nM; in experiment [1] it was 24.3 nM; in experiment [2], 0.843 nM; in experiment [3], 1.77 nM. In addition, the inhibition at up to 0.1 µM in experiment [1] (setting [4]) was determined as 71%; in experiment [2] (setting [4]), 95.1%; in experiment [3] (setting [4]), 84.5%.
As to `CC[C@@]1(O)C(=O)OCc2c1cc1n(c2=O)Cc2c-1nc1cc(F)c(C)c3c1c2[C@@H](NC(=O)CCN)CC3` [Reference example 1, reference compound], the IC50 with Colo205 cells is greater than 1000 nM; in the experiment on NCI-N87 cells (NCI-N87, 144 h), greater than 300 nM.

B1: antibody-drug conjugate DB1001-X1 (antibody, DAR 3.89, V domains shown)
VH: QVQLVESGGGVVQPGRSLRLSCAASGFTFRSFGMHWVRQAPGKGLEWVAVISYDASNEYYADSVKGRFIISRDNSKDTLYLQMNSLRAGDTAVYYCAKGGALRWYFAYWGQGTLVTVSS
VL: EIVMTQSPATLSVSPGERATLSCRASQSISSNLGWYQQKPGQAPRLLIYGASTRATGIPARFSGSGSGTEFTLTISSLQSEDFAVYYCQQYRSWPPLTFGGGTKVEIKR
modifications: linker-cytotoxin X1 (payload P-II-3) coupled after TCEP reduction of the antibody; drug-to-antibody ratio (DAR) of 3.89; conjugation residues not stated
For the molecule B1, the “IC50 (nM), in vitro proliferation inhibition of MDA-MB-468 cells (CTG, 7 days)” value with human B7H4 worked out at 30.3 nM.
